Earlier results in patent US20200396998A1, “HERBICIDAL COMBINATIONS” (UPL LTD, priority 2017, published 2020).

Tested on: broadleaf weed
Settings: saflufenacil alone; early season broadleaf weed control

SMILES: CC(C)N(C)S(=O)(=O)NC(=O)c1cc(-n2c(=O)cc(C(F)(F)F)n(C)c2=O)c(F)cc1Cl [Saflufenacil, N′{2-chloro-4-fluoro-5-[1,2,3,6-tetrahydro-3-methyl-2,6-dioxo-4-(trifluoromethyl)pyrimidin-1-yl]benzoyl}-N-isopropyl-N-methylsulfamide]
- Weed control efficacy over time, in words: reduced beyond 30 days after treatment
